Assay results taken from PMC10447463, “Data-mining unveils structure–property–activity correlation of viral infectivity enhancing self-assembling peptides” (Nature Communications, 2023).
Like-named read-outs stand apart in the source and are kept apart here.

Assays:
[1] = system: HIV-1 infection of TZM-bl cells; assay: HIV-1 infectivity enhancement assay, β-galactosidase luminescence; type: cell-based; settings: for Rel-EFC / Log10 Infection Rel EFC: 1.3 µM peptide; for Rel-EFC: infection relative to EF-C (QCKIKQIINMWQ = 1); for Log10 Infection Rel EFC: log10 of infection relative to EF-C; for Log Infectivity: Log10 infection relative to EF-C, asymmetric std dev errors; for Log10 Infection Rel EF-C: HIV-1 infection of TZM-bl cells; for Log10 of Rel to EFC (Feb2021): Log10 of infection relative to EF-C, all peptides of FigS16
[2] = β-sheet content by ATR-FT-IR; type: physicochemical; settings: Fig. S7 panel A; β-sheet content by ATR-FT-IR
Procedure: For ATR FT–IR spectroscopy measurements, 200 µL of the respective 1 mg/mL PNF solution was lyophilized and the resulting powder used for measurement. All spectra were recorded on a Bruker Tensor 27 spectrometer with a diamond crystal as ATR element (PIKE MiracleTM, spectral resolution 2 cm^-1). Every sample was measured with 64 scans. Data were analyzed with OriginLab software and calculation of β–sheet content was conducted according to a previous report. TEM. For TEM measurements 5 µL of PNF fibrils (1 mg/mL) were placed on copper grids coated with carbon and formvar layer (300 mesh, Plano GmbH). After 10 min incubation time, the grids were staining with 4% uranyl acetate solution for 2.5 min and washed with water. Measurements were performed on a Jeol 1400 electron microscope with 120 kV acceleration voltage. CR Assay. For the determination of the amount of peptide monomer converting into nanostructures the amine reactive dye fluorescamine was used analogous to a previous reported protocol. Briefly, 100 µL of the preformed PNF solution was centrifuged in a Vivaspin 500 tube (3 kDa MWCO) to separate fibers from free peptide monomer (16200 x g, 4 °C, 45 min). The filtrate and 100 μL of the non-filtered PNF sample were lyophilized and dissolved in 30 μL DMSO. 10 μL of the filtrate and non-filtered DMSO samples were submitted in a black UV Star® 384 microliter well–plates (Greiner bio–one) and 3 μL of the fluorescamine solution (10 mg/mL, DMSO) was added to measure the fluorescence enhancement. After 20 min of incubation at RT, fluorescence was recorded on an Infinite® M1000 PRO microplate reader (Tecan) at λem = 470 nm upon excitation at λex = 365 nm with 10 nm bandwidths and multiple reads per well (3×3). Measurements were repeated in triplicates and averaged with standard deviation. All values were calculated as n-fold fluorescence enhancement (DMSO only as a reference was set to 1). The conversion rate CR was defined according to the equation Eq. (3).3 CR=100−100×fluorescenceintensityfiltrate/fluorescenceintensityoriginal[%]

[3] = type: physicochemical; settings: for ThT Cat. / ThT-Fluorescence (categorical): ThT-active if fluorescence at least twice the control
How it was run: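 Fibrils (1 mg/mL solution) were mixed with 50 µM ThT in PBS for 15 min at RT, and fluorescence was read at λex 440/λem 488 nm against a PBS blank, as a triplicate mean ± SD. Zeta potential came from electrophoretic mobility (Smoluchowski) after 1 d aggregation at 1 mg/mL in PBS pH 7.4, diluted into 1 mM KCl.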

[4] = Fig. S7 panel A (plotted against β-sheet content), TZM-bl cells
[5] = Log10 of infection rate relative to EF-C, Figure 3A source data
[6] = infection rate relative to EF-C, log10, data of Figure 2D
[7] = infection rate relative to EF-C, log10, source data of Figure 2C
[8] = ThT fluorescence category, 1 if Rel. ThT >2

Substance: CQFQFQF
- Rel-EFC [1]: 0,35
- Log10 Infection Rel EFC [1]: -0,45
- Log Infectivity [1, 4]: -0.4519
- Log10 Infection Rel EF-C [1, 5]: -0.45
- Log10 Infection Rel EF-C [1, 6]: -0.4519
- Log10 Infection Rel EF-C [1, 7]: -0.4519
- Log10 of Rel to EFC (Feb2021) [1]: -0.45
- b -sheet / % [2]: 34.9%
- Tht category (> 2 to blank = +) ([3]; Fig S10 panel D): 1 (ThT. Cat is 1, if Rel. ThT >2)
- ThT Cat, ([3]; ThT category, 1 if Rel. ThT >2): 1 (ThT. Cat is 1, if Rel. ThT >2)
- ThT Cat. [3, 8]: 1 (ThT. Cat is 1, if Rel. ThT >2)
- ThT Cat. / ThT-Fluorescence (categorical) [3]: 1 (ThT. Cat is 1, if Rel. ThT >2)

Substance: KFKFQFW
- Rel-EFC [1]: 0,16
- Log10 Infection Rel EFC [1]: -0,79
- Log Infectivity [1, 4]: -0.7899
- Log10 Infection Rel EF-C [1, 5]: -0.79
- Log10 Infection Rel EF-C [1, 6]: -0.7899
- Log10 Infection Rel EF-C [1, 7]: -0.7899
- Log10 of Rel to EFC (Feb2021) [1]: -0.79
- Abs. Inf. ([1]; absolute HIV-1 infection signal, TZM-bl cells, β-galactosidase luminescence): 4953
- b -sheet / % [2]: 35.45%
- Tht category (> 2 to blank = +) ([3]; Fig S10 panel D): 1 (ThT. Cat is 1, if Rel. ThT >2)
- ThT Cat, ([3]; ThT category, 1 if Rel. ThT >2): 1 (ThT. Cat is 1, if Rel. ThT >2)
- ThT Cat. ([3]; ThT category, 1 if Rel. ThT >2): 1 (ThT. Cat is 1, if Rel. ThT >2)
- ThT Cat. / ThT-Fluorescence (categorical) [3]: 1 (ThT. Cat is 1, if Rel. ThT >2)

Substance: KFKFQFF
- Rel-EFC [1]: 0,12
- Log10 Infection Rel EFC [1]: -0,91
- Log Infectivity [1, 4]: -0.9142
- Log10 Infection Rel EF-C [1, 5]: -0.91
- Log10 Infection Rel EF-C [1, 6]: -0.9142
- Log10 Infection Rel EF-C [1, 7]: -0.9142
- Log10 of Rel to EFC (Feb2021) [1]: -0.91
- Abs. Infection at 0.26 µM ([1]; peptide 0.26 µM, mean of n = 3, Figure 4A): 476.7
- Infect 1 0.26 µM ([1]; peptide 0.26 µM, replicate 1, absolute infection signal, Figure 4A): 343.33
- Infect 2 0.26 µM ([1]; peptide 0.26 µM, replicate 2, absolute infection signal, Figure 4A): 603.33
- Infect 3 0.26 µM ([1]; peptide 0.26 µM, replicate 3, absolute infection signal, Figure 4A): 483.33
- Abs. Infection at 1.3 µM ([1]; peptide 1.3 µM, mean of n = 3, Figure 4A): 2850
- Infect 1 .3 µM ([1]; peptide 1.3 µM, replicate 1, absolute infection signal, Figure 4A): 3623.33
- Infect 2 1.3µM ([1]; peptide 1.3 µM, replicate 2, absolute infection signal, Figure 4A): 2253.33
- Infect 3 1.3 µM ([1]; peptide 1.3 µM, replicate 3, absolute infection signal, Figure 4A): 2673.33
- b -sheet / % [2]: 48.35%
- Tht category (> 2 to blank = +) ([3]; Fig S10 panel D): 1 (ThT. Cat is 1, if Rel. ThT >2)
- ThT Cat, ([3]; ThT category, 1 if Rel. ThT >2): 1 (ThT. Cat is 1, if Rel. ThT >2)
- ThT Cat. [3, 8]: 1 (ThT. Cat is 1, if Rel. ThT >2)
- ThT Cat. / ThT-Fluorescence (categorical) [3]: 1 (ThT. Cat is 1, if Rel. ThT >2)

Substance: KIKIKIKI
- Rel-EFC [1]: 0,03
- Log10 Infection Rel EFC [1]: -1,49
- Log Infectivity [1, 4]: -1.487
- Log10 Infection Rel EF-C [1, 5]: -1.49
- Log10 Infection Rel EF-C [1, 6]: -1.487
- Log10 Infection Rel EF-C [1, 7]: -1.487
- b -sheet / % [2]: 40.46%
- Tht category (> 2 to blank = +) ([3]; Fig S10 panel D): 1 (ThT. Cat is 1, if Rel. ThT >2)
- Tht category (> 2 to blank = +) ([3]; FigS12 panel A): 1 (ThT. Cat is 1, if Rel. ThT >2)
- ThT Cat, ([3]; FigS12 panel B): 1 (ThT. Cat is 1, if Rel. ThT >2)
- ThT Cat, ([3]; ThT category, 1 if Rel. ThT >2): 1 (ThT. Cat is 1, if Rel. ThT >2)
- ThT Cat. [3, 8]: 1 (ThT. Cat is 1, if Rel. ThT >2)
- ThT Cat. / ThT-Fluorescence (categorical) [3]: 1 (ThT. Cat is 1, if Rel. ThT >2)

Substance: CKIKQIINMWQ
- Rel-EFC [1]: 1,24
- Log10 Infection Rel EFC [1]: 0,09
- Log Infectivity [1, 4]: 0.09484
- Log Infectivity ([1]; Fig. S7 panel B (plotted against CR), rounded to two decimals, TZM-bl cells): 0.09
- Log10 Infection Rel EF-C [1, 5]: 0.09
- Log10 Infection Rel EF-C [1, 6]: 0.09484
- Log10 Infection Rel EF-C [1, 7]: 0.09484
- Log10 of Rel to EFC (Feb2021) [1]: 0.09
- b -sheet / % [2]: 51%
- Tht category (> 2 to blank = +) ([3]; Fig S10 panel D): 1 (ThT. Cat is 1, if Rel. ThT >2)
- ThT Cat. ([3]; Fig S10 panel E): 1 (ThT. Cat is 1, if Rel. ThT >2)
- ThT Cat, ([3]; ThT category, 1 if Rel. ThT >2): 1 (ThT. Cat is 1, if Rel. ThT >2)
- ThT Cat. [3, 8]: 1 (ThT. Cat is 1, if Rel. ThT >2)
- ThT Cat. / ThT-Fluorescence (categorical) [3]: 1 (ThT. Cat is 1, if Rel. ThT >2)
